Source: a compilation of properties of binary mixtures (doi:10.1016/j.molliq.2016.11.066)

Assay: xn = mol fraction of the nth substance listed
Conditions: 101 kPa

CCCC[n+]1ccn(C)c1.F[P-](F)(F)(F)(F)F + COCCO
speed of sound (298.15 K, x1 = 0.0966): 1365.5 m/s | speed of sound (298.15 K, x1 = 0.1943): 1384.8 m/s | speed of sound (298.15 K, x1 = 0.3979): 1407.6 m/s | speed of sound (298.15 K, x1 = 0.4792): 1414.1 m/s | speed of sound (298.15 K, x1 = 0.6753): 1427.3 m/s | speed of sound (298.15 K, x1 = 0.8101): 1435.2 m/s | speed of sound (298.15 K, x1 = 1): 1443.8 m/s | speed of sound (303.15 K, x1 = 0.0966): 1349.4 m/s | speed of sound (303.15 K, x1 = 0.1943): 1369.8 m/s | speed of sound (303.15 K, x1 = 0.2887): 1383.3 m/s | speed of sound (303.15 K, x1 = 0.4792): 1401.4 m/s | speed of sound (303.15 K, x1 = 0.5943): 1409.8 m/s | speed of sound (303.15 K, x1 = 0.6753): 1414.9 m/s | speed of sound (303.15 K, x1 = 0.8101): 1422.8 m/s | speed of sound (303.15 K, x1 = 1): 1431.7 m/s | speed of sound (308.15 K, x1 = 0.0966): 1333.3 m/s | speed of sound (308.15 K, x1 = 0.1943): 1354.5 m/s | speed of sound (308.15 K, x1 = 0.2887): 1369 m/s | speed of sound (308.15 K, x1 = 0.4792): 1388.8 m/s | speed of sound (308.15 K, x1 = 0.5943): 1397.5 m/s | speed of sound (308.15 K, x1 = 0.8101): 1411 m/s | speed of sound (308.15 K, x1 = 0.8849): 1414.9 m/s | speed of sound (308.15 K, x1 = 1): 1419.8 m/s | speed of sound (313.15 K, x1 = 0.0966): 1317.6 m/s | speed of sound (313.15 K, x1 = 0.1943): 1339.6 m/s | speed of sound (313.15 K, x1 = 0.2887): 1355.1 m/s | speed of sound (313.15 K, x1 = 0.3979): 1368.2 m/s | speed of sound (313.15 K, x1 = 0.4792): 1376 m/s | speed of sound (313.15 K, x1 = 0.5943): 1385.6 m/s | speed of sound (313.15 K, x1 = 0.8101): 1399.3 m/s | speed of sound (313.15 K, x1 = 0.8849): 1403.1 m/s | speed of sound (313.15 K, x1 = 1): 1408.2 m/s | speed of sound (318.15 K, x1 = 0.0966): 1301.5 m/s | speed of sound (318.15 K, x1 = 0.1943): 1324.7 m/s | speed of sound (318.15 K, x1 = 0.2887): 1341.4 m/s | speed of sound (318.15 K, x1 = 0.4792): 1363.7 m/s | speed of sound (318.15 K, x1 = 0.5943): 1373.6 m/s | speed of sound (318.15 K, x1 = 0.8101): 1388 m/s | speed of sound (318.15 K, x1 = 0.8849): 1391.8 m/s | speed of sound (323.15 K, x1 = 0.0966): 1285.5 m/s | speed of sound (323.15 K, x1 = 0.1943): 1310.1 m/s | speed of sound (323.15 K, x1 = 0.2887): 1327.8 m/s | speed of sound (323.15 K, x1 = 0.3979): 1343 m/s | speed of sound (323.15 K, x1 = 0.4792): 1352.2 m/s | speed of sound (323.15 K, x1 = 0.5943): 1362.1 m/s | speed of sound (323.15 K, x1 = 0.6753): 1368.3 m/s | speed of sound (323.15 K, x1 = 0.8101): 1377.2 m/s | speed of sound (323.15 K, x1 = 1): 1385.6 m/s

COCCO + CCCC[n+]1ccn(C)c1.F[P-](F)(F)(F)(F)F
speed of sound (298.15 K, x2 = 0): 1342.1 m/s | speed of sound (303.15 K, x2 = 0): 1324.7 m/s | speed of sound (308.15 K, x2 = 0): 1307.4 m/s | speed of sound (313.15 K, x2 = 0): 1290.1 m/s | speed of sound (318.15 K, x2 = 0): 1272.7 m/s | speed of sound (323.15 K, x2 = 0): 1255.4 m/s
